Test results as given in the supplement of paper PMC13380429.
± gives the standard deviation of the averaged measurements.

Experiments:
Settings in all cases: 72 h
Vero E6 [1] = test: drug sensitivity score (DSS) for viability; higher = more toxic; extreme values may be limits of the assay
Caco-2 [2] = test: as above
HepG2 [3] = test: as above
Calu-3 [4] = test: as above
U2OS [5] = test: as above
Vero E6 [6] = test: cell viability relative to DMSO; higher = less toxic
Caco-2 [7] = test: as above
HepG2 [8] = test: as above
Calu-3 [9] = test: as above
U2OS [10] = test: as above
Vero E6 [11] = test: relative viability EC50 (midpoint between 100% and the lowest measured viability); higher = less toxic
Caco-2 [12] = test: as above
HepG2 [13] = test: as above
Calu-3 [14] = test: as above
U2OS [15] = test: as above

| SMILES | drug sensitivity score (Vero E6 [1]) | drug sensitivity score (Caco-2 [2]) | drug sensitivity score (HepG2 [3]) | drug sensitivity score (Calu-3 [4]) | drug sensitivity score (U2OS [5]) | cell viability (Vero E6 [6]; 1 nM) [%] | cell viability (Vero E6 [6]; 10 nM) [%] | cell viability (Vero E6 [6]; 100 nM) [%] | cell viability (Vero E6 [6]; 1000 nM) [%] | cell viability (Vero E6 [6]; 10000 nM) [%] | cell viability (Caco-2 [7]; 1 nM) [%] | cell viability (Caco-2 [7]; 10 nM) [%] | cell viability (Caco-2 [7]; 100 nM) [%] | cell viability (Caco-2 [7]; 1000 nM) [%] | cell viability (Caco-2 [7]; 10000 nM) [%] | cell viability (HepG2 [8]; 1 nM) [%] | cell viability (HepG2 [8]; 10 nM) [%] | cell viability (HepG2 [8]; 100 nM) [%] | cell viability (HepG2 [8]; 1000 nM) [%] | cell viability (HepG2 [8]; 10000 nM) [%] | cell viability (Calu-3 [9]; 1 nM) [%] | cell viability (Calu-3 [9]; 10 nM) [%] | cell viability (Calu-3 [9]; 100 nM) [%] | cell viability (Calu-3 [9]; 1000 nM) [%] | cell viability (Calu-3 [9]; 10000 nM) [%] | cell viability (U2OS [10]; 1 nM) [%] | cell viability (U2OS [10]; 10 nM) [%] | cell viability (U2OS [10]; 100 nM) [%] | cell viability (U2OS [10]; 1000 nM) [%] | cell viability (U2OS [10]; 10000 nM) [%] | relative viability EC50 (Vero E6 [11]) [µM] | relative viability EC50 (Caco-2 [12]) [µM] | relative viability EC50 (HepG2 [13]) [µM] | relative viability EC50 (Calu-3 [14]) [µM] | relative viability EC50 (U2OS [15]) [µM] |
| --- | --- | --- | --- | --- | --- | --- | --- | --- | --- | --- | --- | --- | --- | --- | --- | --- | --- | --- | --- | --- | --- | --- | --- | --- | --- | --- | --- | --- | --- | --- | --- | --- | --- | --- | --- |
| CC(C)[C@H]1[C@@H]2CC[C@@H](C2)[C@@H]1N | 0 | 0.3 | 0 | 0 | 0 | 89.6 | 99.3 | 88.5 | 95.3 | 108 | 96.8 | 98.9 | 106 | 100 | 83.9 | 89.5 | 95 | 93.6 | 97.4 | 90.1 | 102 | 99.7 | 98.6 | 96 | 104 | 103 | 102 | 98 | 93.6 | 92.1 | > 10 | > 10 | > 10 | > 10 | > 10 |
| CCC(=O)c1cc(-c2ccc(Cl)cc2)n(-c2ccc(S(N)(=O)=O)cc2)c1C | 0 | 0 | 0 | 0 | 0 | 103 | 104 | 98.4 | 101 | 91.2 | 101 | 91.1 | 107 | 96.5 | 89.7 | 105 | 102 | 102 | 122 | 91.5 | 96.6 | 97.4 | 103 | 102 | 103 | 103 | 99.6 | 99.3 | 96.4 | 102 | > 10 | > 10 | > 10 | > 10 | > 10 |
| CCCCc1ccc(NS(=O)(=O)c2ccc(F)cc2)cc1 | 0 | 0 | 1.6 | 0 | 0 | 101 | 101 | 99.9 | 99.1 | 96.2 | 94.9 | 87.2 | 98.6 | 93.3 | 88.5 | 101 | 114 | 86.6 | 99.4 | 86.5 | 93.2 | 87.6 | 100 | 98.5 | 102 | 97.4 | 96.2 | 99 | 101 | 100 | > 10 | > 10 | > 10 | > 10 | > 10 |
| CCOC(=O)[C@@H](C)Oc1cccc2c(=O)n(CC(=O)Nc3ccc4c(c3)OCCO4)ccc12 | 0 | 0.3 | 0 | 0 | 0 | 101 | 99.4 | 99 | 98.5 | 99.1 | 90.5 | 113 | 95.5 | 101 | 83.5 | 106 | 92.7 | 98.6 | 91.4 | 102 | 92.5 | 88.6 | 80.8 | 95.5 | 89.8 | 98.3 | 101 | 95.8 | 105 | 88.9 | > 10 | > 10 | > 10 | > 10 | > 10 |
| CNc1ncc2cc(-c3cc(NC(=O)NCCC(C)(C)C)c(F)cc3C)c(C)nc2n1 | 9.1 | 7.2 | 18.9 | 7.7 | 7.4 | 96.6 | 103 | 95.1 | 59.2 | 22.3 | 101 | 97.9 | 99.1 | 71.1 | 35.7 | 111 | 98.9 | 78.2 | 12.5 | 8.3 | 90.9 | 106 | 106 | 75.5 | 24.6 | 104 | 104 | 97.9 | 82.3 | 17.6 | 0.915 | 1.09 | 0.189 | 1.34 | 1.67 |
| COc1cc2c(Nc3ccc(NC(=O)c4ccccc4)cc3)ncnc2cc1OCCCN1CCOCC1 | 0 | 0 | 0 | 0 | 0 | 99.7 | 101 | 101 | 97.3 | 108 | 99.6 | 96.8 | 106 | 102 | 108 | 102 | 107 | 96.4 | 108 | 109 | 95.2 | 95.5 | 96.9 | 79.4 | 99.6 | 105 | 98.3 | 101 | 103 | 102 | > 10 | > 10 | > 10 | > 10 | > 10 |
| C[C@@H](Oc1ccc(Cl)cc1)c1ccnc2ncnn12 | 0 | 0 | 0 | 0 | 0 | 96.2 | 97.7 | 90.1 | 96.2 | 106 | 97.2 | 91.7 | 94 | 109 | 93 | 95 | 102 | 92.7 | 96.3 | 107 | 118 | 97.6 | 100 | 89.7 | 95 | 95.8 | 94.3 | 99.3 | 99.9 | 99.2 | > 10 | > 10 | > 10 | > 10 | > 10 |
| C[C@@H]1CCN(C(=O)CC#N)C[C@@H]1N(C)c1ncnc2[nH]ccc12 | 0 | 0 | 0 | 0 | 0 | 98.6 | 94.8 | 97 | 98.3 | 96.1 | 102 | 103 | 94.4 | 96.9 | 104 | 111 | 94.4 | 105 | 97.7 | 108 | 96.3 | 97.5 | 106 | 112 | 110 | 101 | 103 | 101 | 103 | 96.9 | > 10 | > 10 | > 10 | > 10 | > 10 |
| Cc1cccc(-c2[nH]c(C(C)(C)C)nc2-c2ccc3nccnc3c2)n1 | 0.7 | 5.4 | 7.9 | 0 | 1.3 | 99.3 | 99.4 | 104 | 98.1 | 81.6 | 104 | 98.1 | 104 | 91.1 | 29.8 | 101 | 95.2 | 103 | 80.5 | 12.9 | 106 | 104 | 109 | 102 | 87.3 | 96.8 | 101 | 95 | 89.2 | 79 | > 10 | 2.14 | 1.64 | > 10 | > 10 |
| Oc1ccc(-c2nc(-c3ccc(F)cc3)c(-c3ccncc3)[nH]2)cc1 | 0 | 0 | 0.9 | 0 | 0 | 97.7 | 100 | 91.1 | 93.4 | 111 | 88.1 | 104 | 100 | 95 | 91.1 | 101 | 103 | 102 | 94 | 83.5 | 87.3 | 106 | 104 | 118 | 91.2 | 96.6 | 101 | 94.8 | 98.1 | 89.8 | > 10 | > 10 | > 10 | > 10 | > 10 |
| N[C@@H](C(=O)O)c1ccc(C(=O)O)c(O)c1 (racemic) [4-carboxy-3-hydroxyphenylglycine-(RS)] | 0 | 0 | 0 | 0 | 0 | 101.5 ± 0.78 | 98.35 ± 0.49 | 97.35 ± 0.92 | 102 ± 5.4 | 105 ± 12 | 98.6 | 97.4 | 92.6 | 110 | 103 | 99.7 ± 6.4 | 113 ± 12 | 104 ± 6.9 | 107 ± 4 | 98.7 ± 16 | 94.7 ± 5.6 | 91.5 ± 6.3 | 95.95 ± 0.35 | 94.5 ± 1.1 | 99.5 ± 2 | 97.1 ± 3 | 99.4 ± 2.1 | 97.8 ± 3.1 | 98.7 ± 4.6 | 105 ± 1.8 | > 10 | > 10 | > 10 | > 10 | > 10 |
| C[C@@]1(O)[C@H](O)[C@@H](CO)O[C@H]1n1cnc2c(NC3CCCC3)nc(Cl)nc21 [2'-MeCCPA] | 0 | 0 | 0 | 0 | 0 | 105 | 98.7 | 100 | 98.9 | 102 | 95.9 | 100 | 102 | 105 | 103 | 95.6 | 95.5 | 101 | 97.7 | 96.8 | 93.9 | 98 | 96.5 | 100 | 91.4 | 96.9 | 100 | 96.8 | 99.6 | 100 | > 10 | > 10 | > 10 | > 10 | > 10 |
| c1ccc2sc(N3CCN(Cc4ccc5c(c4)OCO5)CC3)nc2c1 [2-[1-(4-piperonyl)piperazinyl]benzothiazole] | 0 | 0 | 0 | 0 | 0 | 92 | 94.8 | 91.7 | 95.8 | 100 | 103 | 92.2 | 98.9 | 90.3 | 100 | 98.4 | 108 | 100 | 96 | 103 | 102 | 92.8 | 103 | 98.6 | 90.5 | 97.2 | 98 | 106 | 96.1 | 104 | > 10 | > 10 | > 10 | > 10 | > 10 |
| Cc1ncc[nH]1 [2-methylimidazole] | 0 | 0 | 0 | 0 | 0 | 96.2 | 97.8 | 96.1 | 94.9 | 108 | 98.7 | 97.4 | 92.6 | 107 | 104 | 95.3 | 95.7 | 89.7 | 96.2 | 91.5 | 96.7 | 97.1 | 112 | 107 | 117 | 98.7 | 97.4 | 101 | 97.8 | 99 | > 10 | > 10 | > 10 | > 10 | > 10 |
